Data on 3 molecules can be found in patent publication US5198424A, “Functionally active selectin-derived peptides” (Board of Regents of the University of Oklahoma, priority 1992, dated 1993).

Assay [1] deals with T1, GMP-140 (Homo sapiens, UniProt P16109).
T1 sequence (P16109 42-830): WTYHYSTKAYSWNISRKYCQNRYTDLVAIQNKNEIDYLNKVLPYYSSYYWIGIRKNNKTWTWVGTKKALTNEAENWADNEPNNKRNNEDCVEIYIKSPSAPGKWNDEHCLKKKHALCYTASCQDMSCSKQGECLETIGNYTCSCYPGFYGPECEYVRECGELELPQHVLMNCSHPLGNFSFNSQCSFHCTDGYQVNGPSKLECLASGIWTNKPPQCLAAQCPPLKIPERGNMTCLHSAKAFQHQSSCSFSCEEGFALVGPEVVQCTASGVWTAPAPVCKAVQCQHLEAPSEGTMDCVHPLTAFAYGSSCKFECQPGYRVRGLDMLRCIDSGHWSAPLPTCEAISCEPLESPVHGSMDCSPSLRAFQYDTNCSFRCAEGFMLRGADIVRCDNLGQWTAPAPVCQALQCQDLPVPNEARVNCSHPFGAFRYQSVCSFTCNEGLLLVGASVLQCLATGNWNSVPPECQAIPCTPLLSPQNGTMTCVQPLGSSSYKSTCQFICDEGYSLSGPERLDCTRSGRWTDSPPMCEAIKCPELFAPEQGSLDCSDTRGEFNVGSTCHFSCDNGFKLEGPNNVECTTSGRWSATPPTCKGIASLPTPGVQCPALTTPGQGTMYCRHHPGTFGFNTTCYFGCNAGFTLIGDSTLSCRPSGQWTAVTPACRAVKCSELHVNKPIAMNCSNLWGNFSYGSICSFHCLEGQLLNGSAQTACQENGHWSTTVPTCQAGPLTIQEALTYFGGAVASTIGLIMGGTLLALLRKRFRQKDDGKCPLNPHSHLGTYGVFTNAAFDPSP
As to the kind of experiment: Neutrophil adhesion to purified GMP-140 immobilized on plastic wells (myeloperoxidase readout). Type of assay: cell-based. Also on record: from tissue; host or cells: outdated human platelet packs (platelet lysate). The text has this:
Peptides were screened for their ability to inhibit neutrophil adhesion to purified GMP-140 immobilized on plastic wells, using the assay described by Geng, et al., Nature 343, 757-760 (1990).
Human neutrophils are isolated from heparinized whole blood by density gradient centrifugation on Mono-Poly resolving media, Flow Laboratories. Neutrophil suspensions are greater than 98% pure and greater than 95% viable by trypan blue exclusion. For adhesion assays, neutrophils are suspended at a concentration of 2×10^6 cells/ml in Hanks' balanced salt solution containing 1.26 mM Ca^2+ and 0.81 mM Mg^2+ (HBSS, Gibco) with 5 mg/ml human serum albumin (HBSS/HSA). Adhesion assays are conducted in triplicate in 96-well microtiter plates, Corning, incubated at 4° C. overnight with 50 microliters of various protein solutions.
GMP-140 is plated at 5 micrograms/ml and the control proteins: human serum albumin (Alb), platelet glycoprotein IIb/IIIa (IIb), von Willebrand factor (vWF), fibrinogen (FIB), thrombomodulin (TM), gelatin (GEL) or human serum (HS), are added at 50 micrograms/ml. All wells are blocked for 2 h at 22° C. with 300 microliters HBSS containing 10 mg/ml HSA, then washed three times with HBSS containing 0.1% Tween-20 and once with HBSS. Cells (2×10^5 per well were added to the wells and incubated at 22° C. for 20 min. The wells were then filled with HBSS/HSA, sealed with acetate tape (Dynatech), and centrifuged inverted at 150 g for 5 min. After discarding nonadherent cells and supernates, the contents of each well are solubilized with 200 microliters 0.5% hexadecyltrimethylammonium bromide, Sigma, in 50 mM potassium phosphate, pH 6.0, and assayed for myeloperoxidase activity, Ley, et al., Blood 73, 1324-1330 (1989). The number of cells bound was derived from a standard curve of myeloperoxidase activity versus numbers of cells. Under all assay conditions, the cells released less than 5% of total myeloperoxidase and lactate dehydrogenase. Results are presented in Table I. 100% adhesion is that seen in the presence of the C-terminal peptide (amino acid residues 761-777 of GMP-140) as a negative control; this value is the same as controls in which neither peptide nor antibody is added to the cells. Inhibition is read as a lower percent adhesion, so that a value of 5% mean that 95% of the specific adhesion was inhibited.
Peptides from the lectin-like domain of GMP-140 were assayed for their ability to inhibit adhesion of neutrophils to immobilized GMP-140 in the assay described in example 1. Concentrations tested ranged from 0.1 mM to 1.5 mM.

The target of assay [2] is T1, GMP-140. As to the kind of experiment: ELISA of binding of biotinylated monoclonal antibodies G1, G2, G3 to immobilized GMP-140 with soluble peptide. Also on record: from tissue; host or cells: outdated human platelet packs (platelet lysate). As to conditions: peptide 1.5 mM. The procedure: Based on competitive ELISAs with the purified protein, G1, G2, and G3 each recognize distinct or only partially overlapping epitopes. 1.5 mM peptide was added to biotinylated mAb at a concentration of 2.5 micrograms/ml, which were then added to the wells containing GMP-140, as described in example 1. Binding was measured by an ELISA with an avidin detection system.
The monoclonal antibodies were biotinylated as follows: to 0.5 ml of purified IgG antibody (1 mg/ml in PBS, pH 7.4) was added 50 μl of 3.2 mM N-hydroxysuccinimide biotin in dimethyl sulfoxide and 50 μl of 1 M NaHCO3. After a 2 hour incubation at room temperature in the dark, the reaction was stopped with 50 μl of 1 M NH4 Cl. The biotinylated antibody was then separated from other components by gel filtration on a PD-10 column equilibrated in PBS. The ELISA was performed as follows; all steps were performed at room temperature.
Biotinylated antibody (2.5 μg/ml) with or without 1.5 mM peptide was incubated with wells coated with GMP-140 as described in example 1. After a 2 hour incubation, the antibody was removed, the wells were washed, and 0.1 ml of horseradish peroxidase-conjugated stepavidin (Pierce), diluted 1:1000 in HBSS/HSA, was added for 30 min. The wells were then washed and 0.1 ml of peroxidase substrate (Pierce) was added for 15 min. The color reaction was read at 405 nm.
(In an ELISA, binding on a coated surface is turned into a signal by an enzyme label.)

The next assay deals with human neutrophils. As to the kind of experiment: Binding of 125I[GMP-140] to human neutrophils. From the text:
This receptor is believed to be a glycoprotein containing sialic acid and other oligosaccharides that are recognized by the lectin domain of GMP-140. Using the assay described in example 1, and an assay in which ^125 I[GMP-140] binds specifically, saturably and reversibly to human neutrophils, as described by Moore and McEver, Clin.Res. 38, 364A (1990), certain critical structural features of the ligand (or, perhaps more accurately, "counter-receptor") for GMP-140 on human neutrophils have been defined.

Assay [3] concerns the target T1, GMP-140. As to the kind of experiment: Binding of stimulated platelets to neutrophils in the presence of Ca2+. It counts as cell-based. Further details: GMP-140 also mediates adhesion of neutrophils to stimulated platelets; endogenous in cells; host or cells: stimulated platelets.

Ends that are not written are not given here.

Turning to RKNNKTWTWVGTKKALTNE [54-72], on GMP-140 [1] (peptide 1.5 mM, cells bound with control C-terminal peptide 761-777 normalized to 100%), the “% Bound (neutrophils bound to immobilized GMP-140 in the presence of GMP-140-derived peptide)” value was 15%. The “% Binding of Biotinylated MAbs G1” value at GMP-140 [2] (mAb G1 2.5 micrograms/ml) was determined as 106%. Also, the “% Binding of Biotinylated MAbs G2” value at GMP-140 [2] (mAb G2 2.5 micrograms/ml) is 125%. For the same molecule, the “% Binding of Biotinylated MAbs G3” value on GMP-140 [2] (mAb G3 2.5 micrograms/ml) was 104%.
“neuraminidase: neuraminidase purified from Vibrio cholera [reference compound]”: the “adhesion of neutrophils to immobilized GMP-140 after treatment of neutrophils (in words)” value with GMP-140 [1] (neutrophils treated with the enzyme) was “abolished”. In the assay on human neutrophils, the “binding of 125I[GMP-140] to human neutrophils (in words)” value is on record as “abolished”.

B1: GMP-140: granule membrane protein 140, isolated from human platelet lysates by immunoaffinity and ion-exchange chromatography (protein, UniProt P16109 42-830, looked up)
P-selectin: WTYHYSTKAYSWNISRKYCQNRYTDLVAIQNKNEIDYLNKVLPYYSSYYWIGIRKNNKTWTWVGTKKALTNEAENWADNEPNNKRNNEDCVEIYIKSPSAPGKWNDEHCLKKKHALCYTASCQDMSCSKQGECLETIGNYTCSCYPGFYGPECEYVRECGELELPQHVLMNCSHPLGNFSFNSQCSFHCTDGYQVNGPSKLECLASGIWTNKPPQCLAAQCPPLKIPERGNMTCLHSAKAFQHQSSCSFSCEEGFALVGPEVVQCTASGVWTAPAPVCKAVQCQHLEAPSEGTMDCVHPLTAFAYGSSCKFECQPGYRVRGLDMLRCIDSGHWSAPLPTCEAISCEPLESPVHGSMDCSPSLRAFQYDTNCSFRCAEGFMLRGADIVRCDNLGQWTAPAPVCQALQCQDLPVPNEARVNCSHPFGAFRYQSVCSFTCNEGLLLVGASVLQCLATGNWNSVPPECQAIPCTPLLSPQNGTMTCVQPLGSSSYKSTCQFICDEGYSLSGPERLDCTRSGRWTDSPPMCEAIKCPELFAPEQGSLDCSDTRGEFNVGSTCHFSCDNGFKLEGPNNVECTTSGRWSATPPTCKGIASLPTPGVQCPALTTPGQGTMYCRHHPGTFGFNTTCYFGCNAGFTLIGDSTLSCRPSGQWTAVTPACRAVKCSELHVNKPIAMNCSNLWGNFSYGSICSFHCLEGQLLNGSAQTACQENGHWSTTVPTCQAGPLTIQEALTYFGGAVASTIGLIMGGTLLALLRKRFRQKDDGKCPLNPHSHLGTYGVFTNAAFDPSP
In the case of B1, the “binding of platelets to neutrophils” value with GMP-140 [3] is listed as “inhibited”.
